Tests used:
Format in all cases: cell-based
Conditions in all cases: mean ± SEM, n ≥ 3
GHRHR E122A = biological target: T1, GHRHR E122A (Homo sapiens, UniProt Q02643, E122A); assay: cAMP accumulation, E122A
T1 construct: GHRHR(23-423)-; HA signal peptide (replaces native signal M1-G22) (N); expressed in transfected cells; host or cells: HEK 293T, pcDNA3.1, transient
Source text: (§1) Fig. 2 Molecular recognition of GHRH by GHRHR and comparison of that with LA-PTH–PTH1R and GLP-1–GLP-1R. a Detailed interaction between GHRH and the TMD pocket of GHRHR with hydrogen bonds shown as dotted lines. b, c Pairwise comparison of GHRH bound to GHRHR with GLP-1 and LA-PTH in complex with their corresponding receptors, showing the relative positions of peptide ligands. Lime green, GHRHR; blue, GHRH; red, PTH1R and LA-PTH; purple, GLP-1R and GLP-1. d–f The effects of mutation in the ligand-binding pocket on cAMP accumulation. cAMP levels were measured in wild-type (WT) receptor and alanine mutants in ECL1, 2, and 3 (d), TM1, 2, and 3 (e), and TM5, 6, and 7 (f). cAMP signals were normalized to the maximum response of WT and concentration–response curves were analyzed using a three-parameter logistic equation. Data shown are means ± S.E.M. of at least three independent experiments (n = 3–5), conducted in triplicate. Source data are provided as a Source data file.
(§2) GHRH-stimulated cAMP accumulation was measured by a LANCE Ultra cAMP kit (PerkinElmer). […] After 1 h RT incubation, TR-FRET signals (excitation: 320 nm, emission: 615 and 665 nm) were measured by an EnVision (PerkinElmer).

GHRHR E123A = biological target: T2, GHRHR E123A (Homo sapiens, UniProt Q02643, E123A); assay: cAMP accumulation, E123A
T2 construct: GHRHR(23-423)-; HA signal peptide (replaces native signal M1-G22) (N); expressed in transfected cells; host or cells: HEK 293T, pcDNA3.1, transient
Source text: as §1, §2

GHRHR F126A = biological target: T3, GHRHR F126A (Homo sapiens, UniProt Q02643, F126A); assay: cAMP accumulation, F126A
T3 construct: GHRHR(23-423)-; HA signal peptide (replaces native signal M1-G22) (N); expressed in transfected cells; host or cells: HEK 293T, pcDNA3.1, transient
Source text: as §1, §2

GHRHR K182A = biological target: T4, GHRHR K182A (Homo sapiens, UniProt Q02643, K182A); assay: cAMP accumulation, K182A
T4 construct: GHRHR(23-423)-; HA signal peptide (replaces native signal M1-G22) (N); expressed in transfected cells; host or cells: HEK 293T, pcDNA3.1, transient
Source text: as §1, §2

GHRHR D193A = biological target: T5, GHRHR D193A (Homo sapiens, UniProt Q02643, D193A); assay: cAMP accumulation, D193A
T5 construct: GHRHR(23-423)-; HA signal peptide (replaces native signal M1-G22) (N); expressed in transfected cells; host or cells: HEK 293T, pcDNA3.1, transient
Source text: as §1, §2

GHRHR H194A = biological target: T6, GHRHR H194A (Homo sapiens, UniProt Q02643, H194A); assay: cAMP accumulation, H194A
T6 construct: GHRHR(23-423)-; HA signal peptide (replaces native signal M1-G22) (N); expressed in transfected cells; host or cells: HEK 293T, pcDNA3.1, transient
Source text: as §1, §2

GHRHR C195A = biological target: T7, GHRHR C195A (Homo sapiens, UniProt Q02643, C195A); assay: cAMP accumulation, C195A
T7 construct: GHRHR(23-423)-; HA signal peptide (replaces native signal M1-G22) (N); expressed in transfected cells; host or cells: HEK 293T, pcDNA3.1, transient
Source text: as §1, §2

GHRHR W282A = biological target: T8, GHRHR W282A (Homo sapiens, UniProt Q02643, W282A); assay: cAMP accumulation, W282A
T8 construct: GHRHR(23-423)-; HA signal peptide (replaces native signal M1-G22) (N); expressed in transfected cells; host or cells: HEK 293T, pcDNA3.1, transient
Source text: as §1, §2

GHRHR I289A = biological target: T9, GHRHR I289A (Homo sapiens, UniProt Q02643, I289A); assay: cAMP accumulation, I289A
T9 construct: GHRHR(23-423)-; HA signal peptide (replaces native signal M1-G22) (N); expressed in transfected cells; host or cells: HEK 293T, pcDNA3.1, transient
Source text: as §1, §2

GHRHR L354A = biological target: T10, GHRHR L354A (Homo sapiens, UniProt Q02643, L354A); assay: cAMP accumulation, L354A
T10 construct: GHRHR(23-423)-; HA signal peptide (replaces native signal M1-G22) (N); expressed in transfected cells; host or cells: HEK 293 T
Source text: as §1, §2

GHRHR R357A = biological target: T11, GHRHR R357A (Homo sapiens, UniProt Q02643, R357A); assay: cAMP accumulation, R357A
T11 construct: GHRHR(23-423)-; HA signal peptide (replaces native signal M1-G22) (N); expressed in transfected cells; host or cells: HEK 293 T
Source text: as §1, §2

GHRHR L358A = biological target: T12, GHRHR L358A (Homo sapiens, UniProt Q02643, L358A); assay: cAMP accumulation, L358A
T12 construct: GHRHR(23-423)-; HA signal peptide (replaces native signal M1-G22) (N); expressed in transfected cells; host or cells: HEK 293 T
Source text: as §1, §2

GHRHR L362A = biological target: T13, GHRHR L362A (Homo sapiens, UniProt Q02643, L362A); assay: cAMP accumulation, L362A
T13 construct: GHRHR(23-423)-; HA signal peptide (replaces native signal M1-G22) (N); expressed in transfected cells; host or cells: HEK 293 T
Source text: as §1, §2

T7 sequence (Q02643 23-423 C195A): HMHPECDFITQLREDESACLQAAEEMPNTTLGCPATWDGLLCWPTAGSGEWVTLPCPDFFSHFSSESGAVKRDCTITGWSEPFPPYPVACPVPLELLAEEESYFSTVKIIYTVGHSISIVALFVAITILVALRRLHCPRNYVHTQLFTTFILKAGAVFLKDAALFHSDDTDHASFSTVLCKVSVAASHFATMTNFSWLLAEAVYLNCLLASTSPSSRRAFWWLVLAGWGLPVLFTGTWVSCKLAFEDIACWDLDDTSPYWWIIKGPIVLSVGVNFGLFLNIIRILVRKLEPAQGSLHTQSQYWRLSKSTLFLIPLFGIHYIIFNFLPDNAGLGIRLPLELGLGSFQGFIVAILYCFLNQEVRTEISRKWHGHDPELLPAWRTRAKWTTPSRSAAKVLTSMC
T13 sequence (Q02643 23-423 L362A): as the sequence (Q02643 23-423 C195A) above, with A173C, L340A counted along it
T3 sequence (Q02643 23-423 F126A): as the sequence (Q02643 23-423 C195A) above, with F104A, A173C counted along it
T1 sequence (Q02643 23-423 E122A): as the sequence (Q02643 23-423 C195A) above, with E100A, A173C counted along it
T2 sequence (Q02643 23-423 E123A): as the sequence (Q02643 23-423 C195A) above, with E101A, A173C counted along it
T11 sequence (Q02643 23-423 R357A): as the sequence (Q02643 23-423 C195A) above, with A173C, R335A counted along it
T4 sequence (Q02643 23-423 K182A): as the sequence (Q02643 23-423 C195A) above, with K160A, A173C counted along it
T8 sequence (Q02643 23-423 W282A): as the sequence (Q02643 23-423 C195A) above, with A173C, W260A counted along it
T12 sequence (Q02643 23-423 L358A): as the sequence (Q02643 23-423 C195A) above, with A173C, L336A counted along it
T9 sequence (Q02643 23-423 I289A): as the sequence (Q02643 23-423 C195A) above, with A173C, I267A counted along it
T10 sequence (Q02643 23-423 L354A): as the sequence (Q02643 23-423 C195A) above, with A173C, L332A counted along it
T5 sequence (Q02643 23-423 D193A): as the sequence (Q02643 23-423 C195A) above, with D171A, A173C counted along it
T6 sequence (Q02643 23-423 H194A): as the sequence (Q02643 23-423 C195A) above, with H172A, A173C counted along it

Question: Which results are given for `CC[C@H](C)[C@H](NC(=O)[C@H](C)NC(=O)[C@H](CC(=O)O)NC(=O)[C@H](C)NC(=O)[C@@H](N)Cc1ccc(O)cc1)C(=O)N[C@@H](Cc1ccccc1)C(=O)N[C@H](C(=O)N[C@@H](CC(N)=O)C(=O)N[C@@H](CO)C(=O)N[C@@H](Cc1ccc(O)cc1)C(=O)N[C@@H](CCCNC(=N)N)C(=O)N[C@@H](CCCCN)C(=O)N[C@H](C(=O)N[C@@H](CC(C)C)C(=O)NCC(=O)N[C@@H](CCC(N)=O)C(=O)N[C@@H](CC(C)C)C(=O)N[C@@H](CO)C(=O)N[C@@H](C)C(=O)N[C@@H](CCCNC(=N)N)C(=O)N[C@@H](CCCCN)C(=O)N[C@@H](CC(C)C)C(=O)N[C@@H](CC(C)C)C(=O)N[C@@H](CCC(N)=O)C(=O)N[C@@H](CC(=O)O)C(=O)N[C@H](C(=O)N[C@@H](CCSC)C(=O)N[C@@H](CO)C(=O)N[C@@H](CCCNC(=N)N)C(=O)N[C@@H](CCC(N)=O)C(=O)N[C@@H](CCC(N)=O)C(=O)NCC(=O)N[C@@H](CCC(=O)O)C(=O)N[C@@H](CO)C(=O)N[C@@H](CC(N)=O)C(=O)N[C@@H](CCC(N)=O)C(=O)N[C@@H](CCC(=O)O)C(=O)N[C@@H](CCCNC(=N)N)C(=O)NCC(=O)N[C@@H](C)C(=O)N[C@@H](CCCNC(=N)N)C(=O)N[C@@H](C)C(=O)N[C@@H](CCCNC(=N)N)C(=O)N[C@@H](CC(C)C)C(N)=O)[C@@H](C)CC)C(C)C)[C@@H](C)O` [GHRH, Growth hormone-releasing hormone]?
Answer: EC50 (GHRHR E122A): 0.11 nM; Emax (GHRHR E122A): 98.38±3.26 % WT; EC50 (GHRHR E123A): 0.0724 nM; Emax (GHRHR E123A): 100.33±1.34 % WT; EC50 (GHRHR F126A): 1.1 nM; Emax (GHRHR F126A): 98.92±0.84 % WT; EC50 (GHRHR K182A): 39.8 nM; Emax (GHRHR K182A): 100.02±1.40 % WT; EC50 (GHRHR D193A): 0.115 nM; Emax (GHRHR D193A): 101.42±1.02 % WT; EC50 (GHRHR H194A): 0.251 nM; Emax (GHRHR H194A): 98.01±1.25 % WT; EC50 (GHRHR C195A): 21.4 nM; Emax (GHRHR C195A): 95.22±1.05 % WT; EC50 (GHRHR W282A): 13.2 nM; Emax (GHRHR W282A): 101.88±5.62 % WT; EC50 (GHRHR I289A): 9.77 nM; Emax (GHRHR I289A): 93.36±2.36 % WT; EC50 (GHRHR L354A): 0.182 nM; Emax (GHRHR L354A): 98.79±1.84 % WT; EC50 (GHRHR R357A): 135 nM; Emax (GHRHR R357A): 60.05±5.19 % WT; EC50 (GHRHR L358A): 1.05 nM; Emax (GHRHR L358A): 100.3±1.21 % WT; EC50 (GHRHR L362A): 0.112 nM; Emax (GHRHR L362A): 103.97±0.47 % WT
